# Measurements published in ChEMBL document CHEMBL1156482, “Molecular mechanism of action of monocyclam versus bicyclam non-peptide antagonists in the CXCR4 chemokine receptor” (J Biol Chem, 2007).
# What was measured:
# [1] = biological target: C-X-C chemokine receptor type 4 (Homo sapiens, UniProt P61073, E288A); assay: (§1) Antagonist activity at human CXCR4 E288A mutant expressed in COS7 cells coexpressing G protein Gqi4myr assessed as inhibition of CXCL12-induced phosphatidylinositol turnover; type: functional, cell-based, COS-7
# [2] = tested on: C-X-C chemokine receptor type 4 (Homo sapiens), P61073 [E288A]; assay: as §1; type: functional, cell-based; settings: COS-7
# [3] = biological target: C-X-C chemokine receptor type 4 (Homo sapiens, UniProt P61073, I259W); assay: (§2) Antagonist activity at human CXCR4 I259W mutant expressed in COS7 cells coexpressing G protein Gqi4myr assessed as inhibition of CXCL12-induced phosphatidylinositol turnover; type: functional, cell-based, COS-7
# C-X-C chemokine receptor type 4 (Homo sapiens, UniProt P61073, I259W), sequence (P61073 whole entry I259W): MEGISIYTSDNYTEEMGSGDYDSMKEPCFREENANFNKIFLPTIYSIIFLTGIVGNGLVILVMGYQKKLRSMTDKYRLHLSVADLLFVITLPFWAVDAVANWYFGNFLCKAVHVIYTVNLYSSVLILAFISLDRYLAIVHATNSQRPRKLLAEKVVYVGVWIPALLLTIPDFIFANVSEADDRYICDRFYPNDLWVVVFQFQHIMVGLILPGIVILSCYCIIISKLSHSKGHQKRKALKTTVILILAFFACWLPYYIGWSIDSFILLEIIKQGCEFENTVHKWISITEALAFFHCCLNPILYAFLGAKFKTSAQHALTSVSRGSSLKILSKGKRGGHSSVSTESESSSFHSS
# [4] = tested on: C-X-C chemokine receptor type 4 (Homo sapiens), P61073 [I259W]; assay: as §2; type: functional, cell-based; settings: COS-7
# C-X-C chemokine receptor type 4 (Homo sapiens), P61073 [I259W], sequence (P61073 whole entry I259W): as above
# [5] = biological target: C-X-C chemokine receptor type 4 (Homo sapiens, UniProt P61073, H281A); assay: (§3) Antagonist activity at human CXCR4 H281A mutant expressed in COS7 cells coexpressing G protein Gqi4myr assessed as inhibition of CXCL12-induced phosphatidylinositol turnover; type: functional, cell-based, COS-7
# C-X-C chemokine receptor type 4 (Homo sapiens, UniProt P61073, H281A), sequence (P61073 whole entry H281A): as the sequence (P61073 whole entry I259W) above, with W259I, H281A counted along it
# [6] = tested on: C-X-C chemokine receptor type 4 (Homo sapiens), P61073 [H281A]; assay: as §3; type: functional, cell-based; settings: COS-7
# C-X-C chemokine receptor type 4 (Homo sapiens), P61073 [H281A], sequence (P61073 whole entry H281A): as the sequence (P61073 whole entry I259W) above, with W259I, H281A counted along it
# [7] = tested on: C-X-C chemokine receptor type 4 (Homo sapiens), P61073 [Q200W]; assay: (§4) Antagonist activity at human CXCR4 Q200W mutant expressed in COS7 cells coexpressing G protein Gqi4myr assessed as inhibition of CXCL12-induced phosphatidylinositol turnover; type: functional, cell-based; settings: COS-7
# C-X-C chemokine receptor type 4 (Homo sapiens), P61073 [Q200W], sequence (P61073 whole entry Q200W): as the sequence (P61073 whole entry I259W) above, with Q200W, W259I counted along it
# [8] = biological target: C-X-C chemokine receptor type 4 (Homo sapiens, UniProt P61073, Q200W); assay: as §4; type: functional, cell-based, COS-7
# C-X-C chemokine receptor type 4 (Homo sapiens, UniProt P61073, Q200W), sequence (P61073 whole entry Q200W): as the sequence (P61073 whole entry I259W) above, with Q200W, W259I counted along it
# [9] = biological target: C-X-C chemokine receptor type 4 (Homo sapiens, UniProt P61073, D262N); assay: (§5) Antagonist activity at human CXCR4 D262N mutant expressed in COS7 cells coexpressing G protein Gqi4myr assessed as inhibition of CXCL12-induced phosphatidylinositol turnover; type: functional, cell-based, COS-7
# [10] = tested on: C-X-C chemokine receptor type 4 (Homo sapiens), P61073 [D262N]; assay: as §5; type: functional, cell-based; settings: COS-7
# [11] = biological target: C-X-C chemokine receptor type 4 (Homo sapiens, UniProt P61073, I259A); assay: (§6) Antagonist activity at transmembrane domain 6 of human CXCR4 I259A mutant expressed in COS7 cells coexpressing G protein Gqi4myr assessed as inhibition of CXCL12-induced phosphatidylinositol turnover; type: functional, cell-based, COS-7
# [12] = tested on: C-X-C chemokine receptor type 4 (Homo sapiens), P61073 [I259A]; assay: as §6; type: functional, cell-based; settings: COS-7
# [13] = biological target: C-X-C chemokine receptor type 4 (Homo sapiens, UniProt P61073, H113A); assay: (§7) Antagonist activity at human CXCR4 H113A mutant expressed in COS7 cells coexpressing G protein Gqi4myr assessed as inhibition of CXCL12-induced phosphatidylinositol turnover; type: functional, cell-based, COS-7
# [14] = tested on: C-X-C chemokine receptor type 4 (Homo sapiens), P61073 [H113A]; assay: as §7; type: functional, cell-based; settings: COS-7
# [15] = tested on: C-X-C chemokine receptor type 4 (Homo sapiens), P61073 [A175F]; assay: (§8) Antagonist activity at human CXCR4 A175F mutant expressed in COS7 cells coexpressing G protein Gqi4myr assessed as inhibition of CXCL12-induced phosphatidylinositol turnover; type: functional, cell-based; settings: COS-7
# [16] = biological target: C-X-C chemokine receptor type 4 (Homo sapiens, UniProt P61073, A175F); assay: as §8; type: functional, cell-based, COS-7
# [17] = biological target: C-X-C chemokine receptor type 4 (Homo sapiens, UniProt P61073, F172A); assay: (§9) Antagonist activity at human CXCR4 F172A mutant expressed in COS7 cells coexpressing G protein Gqi4myr assessed as inhibition of CXCL12-induced phosphatidylinositol turnover; type: functional, cell-based, COS-7
# [18] = tested on: C-X-C chemokine receptor type 4 (Homo sapiens), P61073 [F172A]; assay: as §9; type: functional, cell-based; settings: COS-7
# [19] = tested on: C-X-C chemokine receptor type 4 (Homo sapiens), P61073 [H203A]; assay: (§10) Antagonist activity at human CXCR4 H203A mutant expressed in COS7 cells coexpressing G protein Gqi4myr assessed as inhibition of CXCL12-induced phosphatidylinositol turnover; type: functional, cell-based; settings: COS-7
# [20] = biological target: C-X-C chemokine receptor type 4 (Homo sapiens, UniProt P61073, H203A); assay: as §10; type: functional, cell-based, COS-7
# [21] = biological target: C-X-C chemokine receptor type 4 (Homo sapiens, UniProt P61073); assay: Antagonist activity at human wild type CXCR4 expressed in COS7 cells coexpressing G protein Gqi4myr assessed as inhibition of CXCL12-induced phosphatidylinositol turnover; type: functional, cell-based, COS-7
# C-X-C chemokine receptor type 4 (Homo sapiens, UniProt P61073), sequence (P61073 whole entry): as the sequence (P61073 whole entry I259W) above, with W259I counted along it
# [22] = tested on: C-X-C chemokine receptor type 4 (Homo sapiens), P61073 [T287A]; assay: (§11) Antagonist activity at human CXCR4 T287A mutant expressed in COS7 cells coexpressing G protein Gqi4myr assessed as inhibition of CXCL12-induced phosphatidylinositol turnover; type: functional, cell-based; settings: COS-7
# [23] = biological target: C-X-C chemokine receptor type 4 (Homo sapiens, UniProt P61073, T287A); assay: as §11; type: functional, cell-based, COS-7
# [24] = biological target: C-X-C chemokine receptor type 4 (Homo sapiens, UniProt P61073, Q200A); assay: (§12) Antagonist activity at human CXCR4 Q200A mutant expressed in COS7 cells coexpressing G protein Gqi4myr assessed as inhibition of CXCL12-induced phosphatidylinositol turnover; type: functional, cell-based, COS-7
# [25] = tested on: C-X-C chemokine receptor type 4 (Homo sapiens), P61073 [Q200A]; assay: as §12; type: functional, cell-based; settings: COS-7
# [26] = biological target: C-X-C chemokine receptor type 4 (Homo sapiens, UniProt P61073, Y255A); assay: (§13) Antagonist activity at human CXCR4 Y255A mutant expressed in COS7 cells coexpressing G protein Gqi4myr assessed as inhibition of CXCL12-induced phosphatidylinositol turnover; type: functional, cell-based, COS-7
# C-X-C chemokine receptor type 4 (Homo sapiens, UniProt P61073, Y255A), sequence (P61073 whole entry Y255A): as the sequence (P61073 whole entry I259W) above, with Y255A, W259I counted along it
# [27] = tested on: C-X-C chemokine receptor type 4 (Homo sapiens), P61073 [Y255A]; assay: as §13; type: functional, cell-based; settings: COS-7
# C-X-C chemokine receptor type 4 (Homo sapiens), P61073 [Y255A], sequence (P61073 whole entry Y255A): as the sequence (P61073 whole entry I259W) above, with Y255A, W259I counted along it
# [28] = tested on: C-X-C chemokine receptor type 4 (Homo sapiens), P61073 [V196A]; assay: (§14) Antagonist activity at human CXCR4 V196A mutant expressed in COS7 cells coexpressing G protein Gqi4myr assessed as inhibition of CXCL12-induced phosphatidylinositol turnover; type: functional, cell-based; settings: COS-7
# C-X-C chemokine receptor type 4 (Homo sapiens), P61073 [V196A], sequence (P61073 whole entry V196A): as the sequence (P61073 whole entry I259W) above, with V196A, W259I counted along it
# [29] = biological target: C-X-C chemokine receptor type 4 (Homo sapiens, UniProt P61073, V196A); assay: as §14; type: functional, cell-based, COS-7
# C-X-C chemokine receptor type 4 (Homo sapiens, UniProt P61073, V196A), sequence (P61073 whole entry V196A): as the sequence (P61073 whole entry I259W) above, with V196A, W259I counted along it
# [30] = biological target: C-X-C chemokine receptor type 4 (Homo sapiens, UniProt P61073, L120F); assay: (§15) Antagonist activity at human CXCR4 L120F mutant expressed in COS7 cells coexpressing G protein Gqi4myr assessed as inhibition of CXCL12-induced phosphatidylinositol turnover; type: functional, cell-based, COS-7
# C-X-C chemokine receptor type 4 (Homo sapiens, UniProt P61073, L120F), sequence (P61073 whole entry L120F): as the sequence (P61073 whole entry I259W) above, with L120F, W259I counted along it
# [31] = tested on: C-X-C chemokine receptor type 4 (Homo sapiens), P61073 [L120F]; assay: as §15; type: functional, cell-based; settings: COS-7
# C-X-C chemokine receptor type 4 (Homo sapiens), P61073 [L120F], sequence (P61073 whole entry L120F): as the sequence (P61073 whole entry I259W) above, with L120F, W259I counted along it
# [32] = tested on: C-X-C chemokine receptor type 4 (Homo sapiens), P61073 [I284A]; assay: (§16) Antagonist activity at human CXCR4 I284A mutant expressed in COS7 cells coexpressing G protein Gqi4myr assessed as inhibition of CXCL12-induced phosphatidylinositol turnover; type: functional, cell-based; settings: COS-7
# [33] = biological target: C-X-C chemokine receptor type 4 (Homo sapiens, UniProt P61073, I284A); assay: as §16; type: functional, cell-based, COS-7
# [34] = biological target: C-X-C chemokine receptor type 4 (Homo sapiens, UniProt P61073, D171N); assay: (§17) Antagonist activity at human CXCR4 D171N mutant expressed in COS7 cells coexpressing G protein Gqi4myr assessed as inhibition of CXCL12-induced phosphatidylinositol turnover; type: functional, cell-based, COS-7
# [35] = tested on: C-X-C chemokine receptor type 4 (Homo sapiens), P61073 [D171N]; assay: as §17; type: functional, cell-based; settings: COS-7
structure (smiles),measurement,setting,value
Cc1ccc(CN2CCCNCCNCCCNCC2)cc1,Ki,[1],303 µM
same,logIC50,[2],-3.52
same,Ki,[3],24 µM
same,logIC50,[4],-4.62
same,Ki,[5],22 µM
same,logIC50,[6],-4.66
same,logIC50,[7],-4.22
same,Ki,[8],60 µM
same,Ki,[9],2.9 µM
same,logIC50,[10],-5.54
same,Ki,[11],2.5 µM
same,logIC50,[12],-5.6
same,Ki,[13],275 µM
same,logIC50,[14],-3.56
same,logIC50,[15],-2.65
same,Ki,[16],2240 µM
same,Ki,[17],15 µM
same,logIC50,[18],-4.82
same,logIC50,[19],-4.5
same,Ki,[20],32 µM
same,Ki,[21],20 µM
same,logIC50,[21]; COS-7,-4.69
same,logIC50,[22],-5.49
same,Ki,[23],3.3 µM
same,Ki,[24],80 µM
same,logIC50,[25],-4.1
same,Ki,[26],37 µM
same,logIC50,[27],-4.43
same,logIC50,[28],-4.56
same,Ki,[29],28 µM
same,Ki,[30],13 µM
same,logIC50,[31],-4.87
same,logIC50,[32],-5.64
same,Ki,[33],2.3 µM
same,Ki,[34],107 µM
same,logIC50,[35],-3.97
